Results reported in patent publication US20110288154A1, “RNA Interference Mediated Inhibition of Epithelial Sodium Channel (ENaC) Gene Expression Using Short Interfering Nucleic Acid (siNA)” (MERCK & CO., INC., priority 2008, published 2011).
[invAb] = inverted abasic unit; m = 2'-O-methyl; r = 2'-OH (RNA); f = 2'-fluoro

Assays:
[1] = system: rSCNN1A (r ENaCα) mRNA; experiment: Screening of ENaCα siNAs in Rat H-4-II-E cells (quantitative RT-PCR); assay type: cell-based; set-up: Percent Reduction of the r ENaCα mRNA relative to a non-targeting control siNA (NTCs) / Rat % KD (efficacy of ENaCα mRNA knockdown): concentration or dose not given beside the values; conditions: Rat H-4-II-E cells, n = 3; for Mean (rSCNN1A expression normalized to the level of rGAPDH) / Percent Reduction of the r ENaCα mRNA relative to a non-targeting control siNA (NTCs) / Avg GAPDH Expression (rGAPDH): 24 hours post-transfection; for Avg ENaCα Expression (rSCNN1A): harvested 24 hours post-transfection; for Avg GAPDH Expression (rGAPDH): housekeeping gene used for normalisation
Protocol: (§1) A series of probes and primers were used to detect the various mRNA transcripts of the genes of ENaCa and GAPDH in mouse, rat, and human cell lines. The assays were performed on an ABI 7500 instrument, according to the manufacturer's instructions. Within each experiment, the baseline was set in the exponential phase of the amplification curve, and based on the intersection point of the baselines with the amplification curve, a Ct value was assigned by the instrument. This Ct value was then assigned a QTY value based on the Standard Curve. The standard curve in the various experiments herein used 1 ng to 300 ng of RNA extracted from the same cell line used for the experimental transfections.
All IC50 values were calculated from the data using GraphPad Prizm software, specifically a sigmoidal, variable slope curve for simple ligand binding. Also, unless otherwise indicated, all calculations of the efficacy and potency (e.g., % knockdown) of the siNAs were done relative to a non-targeting control siNA. If reported, P-values were computed using The Students t-test, including the Welch Correction for unequal variances.
In all of the calculations of the % knock-down of mRNA, the calculation was made relative to the normalized level of expression of the gene of interest in the samples treated with the non-targeting control (NTC) unless otherwise indicated. The gene of interest expression level was divided by the level of expression of GAPDH or 36B4 (depending on the species) in each sample. The three replicates for each condition in each experiment were averaged and the standard deviation of those samples was calculated. The following formula was then used to calculate the % of knock-down of the gene of interest:
The ENaCα siNAs were designed and synthesized as described previously. The siNAs were screened in three cell lines. Human A549 cells, mouse NIH 3T3 and Rat H-4-II-E cells. The data from the screen of ENaCa siNAs in all three species is shown in Tables 3a, 3b, 4a, 4b, 5a, and 5b and a summary of the data for certain siNA molecules is presented in Table 6. Each screen was performed at 24 hrs. The decision to use this time point was based upon the degree of knockdown of the mRNA seen at that time point.

[2] = system: ENaCα mRNA; experiment: Screening of ENaCα siNAs in human A549 cells (quantitative RT-PCR); assay type: cell-based; set-up: Percent Reduction of the ENaCα mRNA relative to a non-targeting control siNA (NTC): concentration or dose not given beside the values; conditions: human A549 cells, n = 3; for Avg ENaCα Expression: 25 nM siNA with Lipofectamine 2000, harvested 24 hours post-transfection; for Mean (level of ENaCα expression normalized to the level of GAPDH) / Percent Reduction of the ENaCα mRNA relative to a non-targeting control siNA (NTC) / Avg GAPDH Expression: 24 hours post-transfection; for Avg GAPDH Expression: housekeeping gene used for normalisation
Protocol: siNA constructs (Table 1b) may be tested for efficacy in reducing ENaC RNA expression in, for example, A549 human lung carcinoma cells. A549 (human; ATCC cat# CCL-185) cells were cultured at 37° C. in the presence of 5% CO2 and grown in Ham's F12K medium with 2 mM L-glutamine adjusted to contain 1.5 g/L sodium bicarbonate and supplemented with fetal bovine serum at a final concentration of 10% and 100 U/mL penicillin. The A549 cells were plated approximately 24 hours before transfection in 96-well plates at 7,500 cells/well, 100 μl/well. After 24 hours complexes containing siNA and Lipofectamine 2000 (Invitrogen) were created as follows: a solution of Lipofectamine 2000 in OPTI-MEM was prepared containing Lipofectamine 2000 at a final concentration of 14 μg/ml. In parallel, solutions of the siNAs were prepared in OPTI-MEM at a final concentration of 150 nM. After both solutions were incubated at 20° C. for 20 minutes an equal volume of the siNA solutions and the Lipofectamine 2000 solution were added together for each of the siNAs. The resultant solution has the siNAs at a final concentration of 75 nM and Lipofectamine 2000 at a final concentration of 7 μg/ml. This solution was incubated at 20° C. for 20 minutes. After incubation 50 μl of the solution were added to each of the wells (in triplicate). The final concentration of siNA in each well was 25 nM and the final concentration of Lipofectamine 2000 in each well was 2.33 μg/ml. […] Dose response curves were determined in a similar manner with each concentration being done in triplicate and maintaining a constant amount of Lipofectamine 2000 in each transfection.
RNA was extracted from 96-well plates using the Invitek Invisorb RNA Cell HTS 96 Kit/C (Cat# 70619000) with a slightly modified protocol. The details of the protocol for isolating RNA from each plate are described as follows:
1) Aspirate media with rake 2) Add 150 ul/well Lysis buffer 3) Place on plate shaker for 1 minute 4) Place DNA binding plate on top of 0.5 ml collection plate 5) Pipette 190 ul up and down twice and add to DNA binding plate 6) Cover plate 7) Centrifuge plates 4 minutes at 4000 RPM 8) Discard DNA binding plate 9) Place the RNA binding plate on top of 2 ml collection plate 10) Add 150 ul/well of Binding Buffer R to 0.5 ml collection plate 11) Move contents of 0.5 ml collection plate to RNA binding plate 12) Let incubate for 1 minute 13) Centrifuge plates 4 minutes at 4000 RPM 14) Add 600 ul/well of Wash Buffer R1 to RNA binding plate 15) Centrifuge plates 4 minutes at 4000 RPM 16) Dump wash buffer from 2 ml collection plate 17) Add 400 ul/well of Wash Buffer R2 to RNA binding plate 18) Centrifuge plates 4 minutes at 4000 RPM 19) Add 400 ul/well of Wash Buffer R2 to RNA binding plate 20) Centrifuge plates 10 minutes at 4000 RPM 21) Dump wash buffer from 2 ml collection plate 22) Centrifuge plates 3 minutes at 4000 RPM 23) Discard 2 ml collection plate and place RNA binding plate on to microtiter plate 24) Add 100 ul/well of elution buffer to RNA binding plate 25) Incubate for 2 minutes 26) Seal plate 27) Centrifuge plates 3 minutes at 4000 RPM 28) Discard RNA binding plate 29) Cover microtiter plate for storage in −80 freezer
as §1, with “transfections. […]” for “transfections.”

| Substance | Mean (rSCNN1A expression normalized to the level of rGAPDH) [1] | Percent Reduction of the r ENaCα mRNA relative to a non-targeting control siNA (NTCs) [1] | Avg ENaCα Expression (rSCNN1A) [1] | Avg GAPDH Expression (rGAPDH) [1] | Avg ENaCα Expression [2] | Mean (level of ENaCα expression normalized to the level of GAPDH) [2] | Percent Reduction of the ENaCα mRNA relative to a non-targeting control siNA (NTC) [2] | Avg GAPDH Expression [2] |
| --- | --- | --- | --- | --- | --- | --- | --- | --- |
| B GGGcAGccAGuGGAGccuG TTB / CAGGcuccAcuGGcuGcccUU (sense GGGCAGCCAGUGGAGCCUGTT; antisense CAGGCUCCACUGGCUGCCCUU; siRNA; sense: DNA at AGT, 2'-fluoro at CU, [invAb] at 5' end, 3' end, backbone not given here; antisense: sugars from the 5' end rrrmffffmffmmffmfffmm, backbone not given here) [Site 1752] | 0.44 | 52.1% | 19.23 | 43.83 | 82.06 | 0.60 | 9.4% | 137.51 |
| B GGcAGccAGuGGAGccuGu TTB / ACAGGcuccAcuGGcuGccUU (sense GGCAGCCAGUGGAGCCUGUTT; antisense ACAGGCUCCACUGGCUGCCUU; siRNA; sense: DNA at AGT, 2'-fluoro at CU, [invAb] at 5' end, 3' end, backbone not given here; antisense: sugars from the 5' end rrrmmffffmffmmffmffmm, backbone not given here) [Site 1753] | 0.59 | 35.4% | 24.59 | 41.36 | 84.05 | 0.66 | 0.6% | 128.19 |
| B GGcuGuGccuAcAucuucu TTB / AGAAGAuGucGGcAcAGccUU (sense GGCUGUGCCUACAUCUUCUTT; antisense AGAAGAUGUCGGCACAGCCUU; siRNA; sense: DNA at AGT, 2'-fluoro at CU, [invAb] at 5' end, 3' end, backbone not given here; antisense: sugars from the 5' end rrrmmmfmffmmfmfmmffmm, backbone not given here) [Site 1387] | 0.71 | 23.3% | 24.12 | 34.37 | 46.10 | 0.43 | 34.2% | 106.19 |
| B GcAuGAAGAcGGccuucuG TTB / CAGAAGGccGuCuucAuGcUU (chain 1 GCAUGAAGACGGCCUUCUGTT; chain 2 CAGAAGGCCGUCUUCAUGCUU; siRNA; chain 1: DNA at AGT, 2'-fluoro at CU, [invAb] at 5' end, 3' end, backbone not given here; chain 2: sugars from the 5' end rrrmmmmffmfmfffmfmfmm, backbone not given here) [Site 341] | 1.05 | 18.4% | 19.10 | 18.30 | 62.42 | 1.62 | −4.3% | 48.12 |
| B GccAGuGGAGccuGuGGuu TTB / AACcAcAGGcuccAcuGGcUU (sense GCCAGUGGAGCCUGUGGUUTT; antisense AACCACAGGCUCCACUGGCUU; siRNA; sense: DNA at AGT, 2'-fluoro at CU, [invAb] at 5' end, 3' end, backbone not given here; antisense: sugars from the 5' end rrrfmfmmmffffmffmmfmm, backbone not given here) [Site 1757] | 0.72 | 21.5% | 29.36 | 40.49 | 66.53 | 0.66 | 0.0% | 101.11 |
| B GccAuccGccuGGuGuGcu TTB / AGCAcAccAGGcGGAuGGcUU (sense GCCAUCCGCCUGGUGUGCUTT; antisense AGCACACCAGGCGGAUGGCUU; siRNA; sense: DNA at AGT, 2'-fluoro at CU, [invAb] at 5' end, 3' end, backbone not given here; antisense: sugars from the 5' end rrrmfmffmmmfmmrfmmfmm, backbone not given here) [Site 310] | 0.92 | 28.3% | 18.39 | 20.12 | 68.10 | 1.57 | −1.0% | 45.78 |
